“Also recorded” adds a separate entry of the source.
Assays:
MCF-7 cells [1] = assay: Cell cycle analysis by flow cytometry; type: cell-based; settings: 1400 W 10 μM, mevalonate 20 μM
Protocol: For DNA content analysis, harvested cells were centrifuged at 1,000×g for 5 min, fixed by the gradual addition of ice-cold 70% ethanol, and washed with PBS. Cells were then treated with RNase (10 μg/mL) for 30 min at 37° C., washed once with PBS, and resuspended and stained in 1 mL of 69 μmol/L propidium iodide in 38 mmol/L sodium citrate for 30 min at room temperature. The cell cycle phase distribution was determined by analytic DNA flow cytometry as described in (Vindelov L, et al. Methods Cell Biol, 33:127-37, 1990). The percentage of cells in each phase of the cell cycle was analyzed using a Modfit software (Verity Software House, Topsham, Me.).
As NO has previously been reported to exert tumor cell cycle alterations (Pervin S, et al. Natl Acad Sci USA 98:3583-3588, 2001), we investigated the cytostatic effect of statins in MCF-7 cells. MCF-7 cells were treated with simvastatin and fluvastatin for […] in the presence and absence of 1400 W (10 μM) and mevalonate (20 μM). Cell cycle progression was examined using FACScan flow cytometry analysis. […] As cell cycle progression from […] involves activations of the cell regulatory proteins, cyclins D and E, we investigated the effects of statins and iNOS inhibitor on the cell cycle proteins. […]

MCF-7 cells [2] = assay: Soft agar assay for colony formation (anchorage-independent growth); type: cell-based; settings: for visible colony formation in soft agar: MCF-7 cells, 10 μM, treated 40 h, colonies after 21 days
Protocol: Soft Agar Assay for Colony Formation:
After cells were treated with various conditions, they were seeded in six-well plates. The plates were first covered with phenol red-free MEM containing 0.6% agar and 10% FBS. The middle layer contained cells (5×10^3) in phenol red-free MEM with 0.35% agar and 10% FBS. The top layer, consisting of the medium, was added to prevent drying of the agar in the plates. The plates were incubated for 21 days, after which the plates were stained in 0.5 ml of 0.005% crystal violet for 1 h and the cultures were inspected and photographed. The colony efficiency (CE) was determined by a count of the number of colonies greater than […] in diameter, which was calculated as the average of colonies counted at 50× magnification in five individual fields manually (Liu S, et al. Oncogene, 23:1256-62, 2004).
The long-term effects of statins and the inhibitors on the proliferation and survival of MCF-7 cells were determined using clonogenic assays (Ramanathan B, et al. Cancer Res, 65:8455-60, 2005). The extent of malignancy of cells corresponds to the attainment of anchorage-independent growth (Liu S, et al. Oncogene, 23:1256-62, 2004). MCF-7 cells were treated with simvastatin or fluvastatin in the presence or absence of either 1400 W or mevalonate or sepiapterin. In separate experiments, cells were treated with either GGTI-298 or FTI-277. At the end of the treatments, approximately 5×10^3 cells were seeded onto a soft agar to determine their clonogenic efficiency after 21 days. […] In the presence of either 1400 W or mevalonate, the colony formation was restored in statin-treated cells (FIG. 6B).

[3] = test system: NO2-/NO3- levels in MCF-7 cells; assay: Nitrite and nitrate measurements by chemiluminescence (NO analyzer); type: cell-based; settings: for effect on statin-induced NO / NO2-/NO3- levels: with simvastatin or fluvastatin (10 μM), 40 h, mevalonate 20 μM, 1400 W 10 μM, sepiapterin 50 μM, compared to statin alone
Protocol: Briefly, following treatments, cells were washed three times with DPBS after aspirating the medium. To this, 1 ml of Hanks' balanced salt mixture containing 25 μM L-arginine was added and incubated for 30 min at 37° C. The medium was collected and centrifuged for 5 min at 5000 rpm, and 50 μl of the clear supernatant was used for nitrate and nitrite analysis. Each sample was analyzed in triplicate.

MCF-7 cells [4] = assay: Apoptosis by TUNEL assay; type: cell-based; settings: with simvastatin or fluvastatin 5-10 μM, 48 h, 1400 W 10 μM, sepiapterin 50 μM, mevalonate 20 μM
Text: Measurement of Apoptosis by TUNEL Assay:
The terminal deoxynucleotidyl transferase-mediated nick-end labeling (TUNEL) assay was used for microscopic detection of apoptosis (Kotamraju S, et al. J Biol Chem, 277:17179-87, 2002). This assay is based on labeling of 3′ free hydroxyl ends of the fragmented DNA with fluorescein-dUTP catalyzed by terminal deoxynucleotidyl transferase. Procedures were followed according to a commercially available kit (ApoAlert) from Clontech. […] The apoptotic cells were detected by fluorescence microscopy equipped with rhodamine and FITC filters. The quantification of apoptosis was performed using the Metamorph image analysis package.
Under these conditions, NO2^−/NO3^− levels were decreased (FIG. 4B). […] Further verification that iNOS is involved in […] NO was obtained from inhibition of geranylgeranylation and farnesylation. […] In contrast, FTI-277 (farnesylation inhibitor) and sepiapterin had no effect on NO2^−/NO3^− levels (FIG. 4C). […] In the TUNEL assay, cells were treated with simvastatin or fluvastatin (5-10 μM) for 48 h in the presence or absence of 1400 W (10 μM), sepiapterin (50 μM) or mevalonate (20 μM) and stained for TUNEL-positive cells as an index of DNA fragmentation monitored by fluorescence microscopy (original magnification, ×100). Photographs were taken for the overlaid images of propidium iodide-and FITC-stained cells (TUNEL-positive cells). Yellow and red denote apoptotic and nonapoptotic cells, respectively. We observed that the TUNEL positive staining was enhanced in statin-treated MCF-7 cells. […] Pretreatment with 1400 W or mevalonate caused a decrease in the TUNEL positive cells.

[5] = test system: cyclin D1, cyclin E and p27 in MCF-7 cells; assay: Cell cycle protein levels by Western analysis (cyclin D1, cyclin E, p27); type: cell-based; settings: 1400 W 10 μM or mevalonate 20 μM
Protocol: A (Table): The cell cycle distribution of MCF-7 cells treated with either simvastatin or fluvastatin (5-10 μM) for 40 h in the presence or 1400 W (10 μM) or mevalonate (20 μM). The cell sorting was performed by flow cytometry as described in “Materials and Methods.” B: Cells were treated with simvastatin or fluvastatin (10 μM) in the presence or absence of 1400 W (10 μM) or mevalonate (20 μM) for 40 h and cyclins D1 and E protein levels were measured by the Western analysis using the corresponding polyclonal or monoclonal antibodies. Data are representative of three separate experiments.
After treatment with statins, cells were washed with ice-cold DPBS and resuspended in 150 μl of radioimmune precipitation assay buffer (20 mM Tris-HCl, pH 7.4, 2.5 mM EDTA, 1% Triton X-100, 1% sodium deoxycholate, 1% SDS, 100 mM NaCl, 100 mM sodium fluoride) containing 1 mM sodium vanadate, 10 μg/ml aprotinin, 10 μg/ml leupeptin, and 10 μg/ml pepstatin inhibitors. Cells were homogenized by passing the suspension through a 25-gauge needle (20 strokes). The lysate was centrifuged at 750×g for 10 min at 4° C. to pellet out the nuclei. The remaining supernatant was centrifuged for 30 min at 12,000×g. Protein was determined using the Lowry method and 50 μg of the lysate was used for the Western blot analysis. […] The band was detected using the ECL method (Amersham Biosciences).

MCF-7 cells [6] = assay: 3H-thymidine uptake (DNA synthesis / cell proliferation); type: cell-based; settings: 10-20 μM
Protocol: Thymidine Uptake Studies:
DNA synthesis was measured by monitoring the uptake of tritiated thymidine, [^3H]TdR (Perkin-Elmer, Boston, Mass.). Cells (5×10^5/ml) were cultured with different concentrations of simvastatin or fluvastatin (0-10 μM) in the presence or absence of mevalonate (20 μM), 1400 W, or sepiapterin. Cells were pulse-chased with [^3H]TdR [0.5 μCi (0.185 MBq)/well during the last 3 h of a 24 h culture, harvested onto glass filters with an automatic cell harvester (Cambridge Technology, Cambridge, Mass.), and counted using the LKB Betaplate scintillation counter (Wallac, Gaithersburg, Md.). All experiments were performed in triplicate and repeated three times.

[7] = test system: MCF-7 breast cancer cells; assay: MTT reduction cytotoxicity assay in MCF-7 cells; settings: 48 h; for MCF-7 cell death (MTT assay) by isoprenylation inhibitors: 10-20 μM
Protocol: MTT Reduction Cytotoxicity Assay:
MTT is taken up by cells and is reduced to a colored formazon product that can be detected by spectrophotometry (max=562 nm). Reduction of MTT is dependent upon the mitochondrial respiratory function, and thus measures the relative number of viable cells in the culture. After the treatment was completed, MCF-7 cells were washed twice with DPBS and taken in a ml of MEM without FBS and incubated with 5 mg/ml MTT solution for 1 h at 37° C. Medium was removed and cells were solubilized in DMSO. The absorption was measured at 562 nm with reference at 630 nm.
We assessed the effectiveness of simvastatin and fluvastatin to induce cytotoxicity in MCF-7 cells. MCF-7 breast cancer cells were treated with fluvastatin or simvastatin at different concentrations (0.5-20 μM) for 24-48 h. The changes in the number of viable cells were determined using the MTT assay that monitors the intracellular conversion of MTT to formazon spectrophotometrically max=562 nm).

iNOS in MCF-7 cells = assay: iNOS mRNA (RT-PCR) and protein (Western) levels; type: cell-based; settings: MCF-7 cells, 10-20 μM, 40 h, Western analysis
Protocol: After treatment with statins, cells were washed with ice-cold DPBS and resuspended in 150 μl of radioimmune precipitation assay buffer (20 mM Tris-HCl, pH 7.4, 2.5 mM EDTA, 1% Triton X-100, 1% sodium deoxycholate, 1% SDS, 100 mM NaCl, 100 mM sodium fluoride) containing 1 mM sodium vanadate, 10 μg/ml aprotinin, 10 μg/ml leupeptin, and 10 μg/ml pepstatin inhibitors. Cells were homogenized by passing the suspension through a 25-gauge needle (20 strokes). The lysate was centrifuged at 750×g for 10 min at 4° C. to pellet out the nuclei. The remaining supernatant was centrifuged for 30 min at 12,000×g. Protein was determined using the Lowry method and 50 μg of the lysate was used for the Western blot analysis. Proteins were resolved using the SDS-polyacrylamide gels and blotted onto nitrocellulose membranes. Membranes were washed with TBS (140 mM NaCl, 50 mM Tris-HCl, pH 7.2) containing 0.1% Tween 20 (TBST) and 5% skim milk to block the non-specific protein binding. Membranes were incubated with 1 μg/ml rabbit anti-iNOS polyclonal antibody (Abeam, Cambridge, Mass.), mouse anti-cyclin D1 antibody, mouse anti-cyclin E antibody (BD Biosciences, San Jose, Calif.) or rabbit anti-p27 antibody (Chemicon International, Temecula, Calif.) in TBST for overnight at 4° C., washed 5 times with TBST, and then incubated with goat anti-rabbit or rabbit anti-mouse IgG-horseradish peroxidase-conjugated secondary antibody (1:5,000) for 1.5 h at room temperature. The band was detected using the ECL method (Amersham Biosciences).
Following the treatments, medium was aspirated and 1 ml of TRIzol reagent (Invitrogen) was added and total RNA was extracted using the manufacturer's protocol. Five μg of RNA was used for the first strand cDNA synthesis using a first strand cDNA synthesis kit (Amersham Biosciences). […]

Compound	effect on statin-induced NO / NO2-/NO3- levels [3]	effect on statin-induced TUNEL-positive cells (proapoptotic effect) (MCF-7 cells [4])	loss of MCF-7 cell proliferation (3H-thymidine uptake) by isoprenylation inhibitors (MCF-7 cells [6])	visible colony formation in soft agar (MCF-7 cells [2])	MCF-7 cell death (MTT assay) by isoprenylation inhibitors [7]	iNOS protein levels by isoprenylation inhibitors (iNOS in MCF-7 cells)	other results
CC(=N)NCc1cccc(CN)c1 [1400 W, N-(3-aminomethyl)benzylacetamidine]	inhibited; also recorded: decreased	decrease	–	–	–	–	effect on statin-induced cell cycle alterations (MCF-7 cells [1]): partially reversed; colony formation in statin-treated cells in the presence of modulator (MCF-7 cells [2]; 1400 W 10 μM or mevalonate 20 μM with statin 10 μM): restored; effect on statin-induced decrease of cyclin D1 and cyclin E [5]: restored in part
COC(=O)[C@H](CCSC)NC(=O)c1ccc(NC[C@@H](N)CS)cc1-c1ccccc1 [FTI-277, methyl {N-[2-phenyl-4-N[2(R)-amino-3-mecaptopropylamino]benzoyl]}-methionate]	–	–	not	not	not	not	–
COC(=O)[C@H](CC(C)C)NC(=O)c1ccc(NC[C@@H](N)CS)cc1-c1cccc2ccccc12 [GGTI-298, N-4-[2(R)-amino-3-mercaptopropyl]amino-2-naphthylbenzoyl-(L)-leucine methyl ester]	–	–	loss of cell proliferation	drastically lowered	induced MCF-7 cell death	dose-dependently induced	–
C[C@H](O)C(=O)C1=Nc2c(nc(N)[nH]c2=O)NC1 [sepiapterin]	significantly increased	exacerbated	–	–	–	–	colony growth, sepiapterin supplementation with simvastatin or fluvastatin (MCF-7 cells [2]; lower concentration of simvastatin or fluvastatin (5 μM), sepiapterin 50 μM): completely inhibited; NO2-/NO3- levels, sepiapterin with FTI-277 ([3]; MCF-7 cells): no effect; NO2-/NO3- levels, sepiapterin with GGTI-298 compared to GGTI-298 alone ([3]; MCF-7 cells): significantly increased; NO2-/NO3- levels, sepiapterin alone ([3]; in the absence of statin): did not increase; effect on statin-induced TUNEL-positive cells (proapoptotic effect) (MCF-7 cells [4]; listed as Sepiapterin): further augmented
CC(C)=CCC/C(C)=C/CC/C(C)=C/CC/C=C(\C)CC/C=C(\C)CCC=C(C)C [squalene]	–	–	–	–	–	–	effect on statin-induced MCF-7 cell cytotoxicity (MTT assay) ([7]; pretreatment before simvastatin or fluvastatin (10 μM), mevalonate 20 μM, 1400 W 10 μM): did not prevent
N-nitroso-fluvastatin [NO-fluvastatin]	–	–	–	–	–	–	potency in causing MCF-7 cell death compared to fluvastatin alone (MTT assay) ([7]; 0-1 μM): more potent

Reference: patent US20070219208A1, “Methods for Treating Cancer” (priority 2006, published 2007)
